Assays:
[1] = target: T1, endogenous full-length progesterone receptor (Homo sapiens, UniProt P06401); conditions: Wang et al. 1994; cited from earlier work
T1 sequence (P06401 1-933): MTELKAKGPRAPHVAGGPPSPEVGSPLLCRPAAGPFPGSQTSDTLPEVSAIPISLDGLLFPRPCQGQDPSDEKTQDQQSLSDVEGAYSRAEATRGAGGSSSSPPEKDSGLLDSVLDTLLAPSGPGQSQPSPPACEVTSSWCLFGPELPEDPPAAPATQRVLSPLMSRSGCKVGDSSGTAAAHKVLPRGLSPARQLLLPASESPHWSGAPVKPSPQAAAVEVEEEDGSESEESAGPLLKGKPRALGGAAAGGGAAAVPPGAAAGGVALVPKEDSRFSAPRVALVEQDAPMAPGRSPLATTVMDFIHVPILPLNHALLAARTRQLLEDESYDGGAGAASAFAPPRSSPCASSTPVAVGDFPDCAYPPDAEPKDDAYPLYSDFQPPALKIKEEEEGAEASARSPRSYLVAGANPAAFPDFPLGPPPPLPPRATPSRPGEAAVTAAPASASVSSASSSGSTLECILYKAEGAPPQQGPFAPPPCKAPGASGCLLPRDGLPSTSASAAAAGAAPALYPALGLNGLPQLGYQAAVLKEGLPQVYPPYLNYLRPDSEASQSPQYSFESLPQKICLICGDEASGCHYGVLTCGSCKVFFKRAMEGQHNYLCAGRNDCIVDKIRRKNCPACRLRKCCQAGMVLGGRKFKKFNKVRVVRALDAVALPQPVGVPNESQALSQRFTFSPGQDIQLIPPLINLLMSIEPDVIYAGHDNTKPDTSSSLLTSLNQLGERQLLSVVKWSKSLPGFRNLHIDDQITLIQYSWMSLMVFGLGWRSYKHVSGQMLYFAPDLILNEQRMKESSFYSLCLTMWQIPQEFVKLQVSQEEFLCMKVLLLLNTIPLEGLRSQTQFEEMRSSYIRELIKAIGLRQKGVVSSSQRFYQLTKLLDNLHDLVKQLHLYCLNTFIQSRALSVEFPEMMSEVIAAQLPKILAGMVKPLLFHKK

human CNS stem cells = experiment: Mitotic rate (24-hour BrdU incorporation) and doubling time of human CNS stem cells with growth factors; assay type: cell-based; conditions: N2 medium, factor supplied daily
Procedure: (§1) The doubling time for human CNS stem cells in N2 medium with bFGF as the sole mitogen is approximately 60 hours which is markedly slower than 24 hours for rat CNS stem cells under the identical culture conditions. This may be due to a species difference in certain cell-autonomous properties of the cells such as a difference in DNA replication rate or in other mitotic phases, G1 or G2, of the cell cycle. We investigated other factors to accelerate the mitotic rate of human CNS stem cells.
Many purified recombinant human growth factors were tested for the ability to enhance the mitogenic activity of bFGF. The mitotic rate of human CNS stem cells was assessed by measuring the proportion of the cells which have incorporated the mitotic label, bromodeoxyuridine (BrdU), during a 24-hour period. Each growth factor was supplied daily to the culture in addition to bFGF. Only the combination of bFGF+EGF and bFGF+TGFα (transforming growth factor-alpha) accelerated beyond the bFGF-induced mitotic rate of the human CNS stem cells. In both conditions, the doubling time of the cells […] 1.5 times to 40 hours over bFGF alone. Combination of bFGF and fetal bovine serum at 1% or at 10% also accelerated the BrdU-incorporation rate of bFGF-induced mitotic rate of CNS stem cells to a similar rate. • 2. Resistance of CNS Stem Cells Against Spontaneous Differentiation

rat CNS stem cells = experiment: Doubling time of rat CNS stem cells in N2 medium with bFGF; assay type: cell-based; conditions: bFGF as sole mitogen
Procedure: as §1

[2] = system: MycER-expressing CNS stem cells; experiment: Growth of MycER-expressing human CNS stem cells in different mitogens; assay type: cell-based
Procedure: The same human CNS stem cell preparation was also subjected to MycER-retrovirus infection and grown in bFGF alone or in bFGF and EGF. […] As with the unmodified parent cells, the MycER cells also retained a 60 hour doubling time in bFGF alone. […] In the absence of MycER expression, the same three conditions yielded a similar pattern of growth, but with less stability.

Row | Compound | activation of full-length receptor [1] | doubling time (human CNS stem cells) | doubling time (rat CNS stem cells) | doubling time [2]
1 | CC#C[C@]1(O)CC[C@H]2[C@@H]3CCC4=CC(=O)CCC4=C3[C@@H](c3ccc(N(C)C)cc3)C[C@@]21C [RU38486] | does not activate |  |  | 
2 | bFGF: basic fibroblast growth factor, mitogen for CNS stem cells |  | approximately 60 hours | 24 h | 60 h

Source: US9465025B2, “Stable neural stem cell lines” (Neuralstem, Inc., priority 1996, dated 2016)
